Source: PMC7762498, “Demethoxycurcumin analogue DMC-BH exhibits potent anticancer effects on orthotopic glioblastomas” (Aging (Albany NY), 2020)

Legend:
U87 cell line = assay: Subcutaneous human glioma xenograft in SCID mice; assay type: in vivo
Description: To examine the anti-glioma effects of DMC-BH in vivo, a human glioma-SCID (severe combined immunodeficient) mouse model was established using the U87 cell line. […] The tumor volumes for the control, TMZ, DMC, and DMC-BH mice at day 21 were 1514 mm^3, 587 mm^3, 876 mm^3 and 570 mm^3, respectively. […] As shown in the Kaplan-Meier curves, the median survival was 15, 27, 19 and 35 days for the control, TMZ, DMC and DMC-BH groups, respectively (Figure 3B).
Figure 3 DMC-BH inhibited U87 glioma cell growth in vivo. Subcutaneous tumors generated from U87 cells were allowed to reach a volume of 150-200 mm^3 and were treated with 20 mg/kg TMZ, DMC or DMC-BH for 21 days. (A) Tumor volume was recorded according to treatment group at the indicated day. (B) The survival of brain tumor-bearing mice was recorded and represented in a Kaplan-Meier plot.
1-[4-Hydroxy-3-(pyrrolidin-1-ylmethyl) phenyl]-7-(4-hydroxy-3-methoxyphenyl) hepta-1,6-diene-3,5-dione, named DMC-BH, was constructed by our lab. DMC was obtained from Sigma-Aldrich (St. Louis, MO). To test the anti-glioma effect of DMC-BH in vivo, a xenograft model of human glioma was established. Four-week-old male SCID mice were purchased from Vital River Laboratory Animal Technology Co., Ltd. (Beijing, China). After a 1-week acclimatization, SCID mice were injected subcutaneously in the right flank with 6 × 10^5 […] glioma cells resuspended in 50 μL DMEM media. Treatment was initiated when the subcutaneous tumors reached an average size of 150 mm^3 to 200 mm^3. Mice received intraperitoneal injection of DMC (20 mg/kg/day), DMC-BH (20 mg/kg/day), TMZ (20 mg/kg/day) or vehicle as a control. Tumor diameter was measured every 2 days with calipers, and the tumor volume was calculated (length × width × height × 0.5). All experiments were carried out in keeping with the procedures and protocols of the Animal Ethics Committee of the First People's Hospital of Kunshan.

[1] = tested on: glioblastoma multiforme (GBM) patient derived tumors; assay: Patient-derived tumor xenograft (PDTX) model; assay type: in vivo, mice; settings: B-NDG mice; DMC-BH 7.5, 15 or 30 mg/kg, TMZ 20 mg/kg
Description: In recent years, PDTX models have been used to mimic human tumors. These models are more clinically relevant than cell line-based xenograft models. Thus, we performed an in vivo study in a PDTX tumor model by implanting human glioma samples from a patient donor into B-NDG mice (Figure 7A).
Figure 7 In vivo anti-tumor activity of DMC-BH in the PDTX tumor model. (A) A scheme illustrating the process of creating the patient-derived tumor model. (B) Tumor growth curves of mice after treatment with 7.5 mg/kg, 15 mg/kg or 30 mg/kg DMC-BH or 20 mg/kg TMZ. (C) Average tumor weight at day 21 after different treatments. (D) Quantification of the Ki67-positive area in different treatment groups. (E) Representative H&E-stained tumor slices and Ki67 immunofluorescence labeled tumor tissue sections from different treatments groups. The data are shown as mean ± SD (n = 6).
Surgically resected human glioma tissue was obtained from a cancer patient (#0407002) following an approved Nanjing Medicinal University Institutional Review Board protocol. Within 2 hours of surgical resection, tumor tissues were cut into 1-2 mm fragments and implanted into SCID mice (B-NDG, 6 weeks old, female) using a surgical procedure approved by Nanjing Medicinal University Institutional Animal Care and Use committee. After surgery, tumor growth in the mice was monitored by palpating the abdomen twice per week. Tumors grew to 5-10 mm in diameter in about 8-10 weeks. The SCID mice bearing PDTX tumors were sacrificed, and tumor fragments of 1 to 2 mm in size were implanted into 6-week-old female SCID mice. Over 60% of the mice experienced tumor growth in approximately 6 weeks.

Compound: Cn1nnc2c(C(N)=O)ncn2c1=O [TMZ, temozolomide]
- tumor volume at day 21 (U87 cell line; U87 subcutaneous xenograft, 20 mg/kg/day intraperitoneal, 21 days, control 1514 mm^3): 587 mm^3
- median survival (U87 cell line; U87 xenograft, 20 mg/kg, control 15 days): 27 days
- tumor growth in PDTX model [1]: significant tumor regression
